The source of these data is patent US8594942B2, “Computational method and system for identifying network patterns in complex biological systems data” (Metabolon, Inc., priority 2004, dated 2013).

The structures appear in SMILES notation. “Also recorded” adds a separate entry of the source.

For series [1], the system named is Male Fischer 344 rats. The experiment in a line: Acetaminophen-induced liver toxicity study: biochemical profiling (LC-MS) of rat liver. It counts as in vivo. Particulars: rat liver metabolite, single dose p.o. How it is done: An acetaminophen-induced liver toxicity study was performed as follows. Male Fischer 344 rats were administered a single dose of acetaminophen (APAP) at 0, 50, 150, 1500 or 2000 mg/kg p.o. (6 rats per group). The 150 mg/kg dose is equivalent to a low overdose level in humans (˜10 g) and 1500 mg/kg is a low toxic dose in rats. The rats were sacrificed at 6, 18, 24, and 48 hr post dosing. Livers of the rats were processed for biochemical profiling, histopathology and gene expression analysis. For the 0, 50 and 1500 mg/kg dose groups, rat urine was collected at −24-0, 0-6, 6-24, and 24-48 hr relative to dosing. Similarly, rat serum was collected at 48 hr for the 0, 50 and 1500 mg/kg groups.
Rat tissue was prepared for LC-MS analysis as follows. Rat liver tissue samples were frozen upon collection. A slice of each frozen sample was placed into a mortar, covered with liquid nitrogen, and ground with a pestle. 100 mg of ground sample was placed in a cryovial, extraction fluid and beads were added, and the sample was further ground and then centrifuged. The supernatant was transferred to a clean cryovial, centrifuged again, and then transferred to a well of a 96-well plate.
LC-MS analysis of the rat tissue and biofluid samples was performed on an Applied Biosystems Mariner liquid chromatograph coupled with a time of flight mass spectrometer (LC-TOF). The mass resolution for the mass spectrometer employed in this experiment was 0.200 amu. One LC was employed with a splitter that allowed for the eluent to be delivered to two TOF MS instruments, one operating in positive ionization mode, the other in negative ionization mode. Compounds detected by LC-MS with an electrospray ion source were cataloged based on retention times and mass-to-charge ratio (m/z) of the ions characteristic of each peak. Mass spectrometric data were collected from 80-900 amu. Raw LC-MS data were processed using the commercially available software TARGETDB (Thru-Put Systems, Inc., Orlando, Fla.).
A targeted list of relative responses for peaks and peaks annotated as known compounds was produced from the LC/MS data for the rat liver samples described in Example 1 and is illustrated in FIG. 1. The resulting biochemical profiling data was subjected to Principal Component Analysis (PCA), showing trends over both dose and time (see FIG. 2). The third principal component (x-axis) is plotted against the second principal component (y-axis) for each of the 6, 18, 24 and 48 hr time points for acetaminophen doses 150 mg/kg (yellow), 1500 mg/kg (black), and 2000 mg/kg (green). Each data point represents the average for six animals.
Mathematical models of the trends observed in the PCA plot were developed. […] Trend 1 is a trend of increasing distance from control as the dose increases at any given time point. Trend 2 is a trend of change from one time point to the next that is in the same direction and of increasing magnitude as dose increases. Each of the relative response peaks in the liver biochemical profiling dataset was tested for adherence to the mathematical models to locate the subset of peaks that followed the observed trends. The peaks that adhered to the models were identified as the subset of most interest for further analysis of acetaminophen-induced liver changes. To further investigate the mode of action of acetaminophen, the known compounds in the identified subset were further analyzed using the methods and systems of the present invention.
Using the methods and systems of the present invention, another graph was generated depicting the 15 components of interest, from Example 3 above, that were closely related enough to fit on a single graph. […] It should be noted that not only is the perturbation of the 15 compounds of interest depicted in FIG. 5, but the experimental result from any compound measured and depicted in the network of FIG. 5 is shown. […]

The test system of series [2] is rats. Particulars: cited from earlier work.

Turning to `CC(=O)Nc1ccc(O)cc1` [acetaminophen], the “Status of L-asparagine” value in series [1] (FIG. 5 network component 2) is on record as “Down Regulated”. Besides, the “Status of ‘N’-acetyl-“b”-D-glucosamine” value in series [1] (FIG. 5 network component 7) is “Down Regulated”. The “Status of “a”-ketoglutarate” value in series [1] (FIG. 5 network component 8) is given as “Down Regulated”. Further, in series [1] (FIG. 5 network component 10), the “Status of L-glutamine” value was “Down Regulated”. Also, the “Status of L-arginine” value in series [1] (FIG. 5 network component 14) is on record as “didn't undergo a significant change; also recorded: No Significant Change”. In addition, the “Status of L-cystathionine” value in series [1] (FIG. 5 network component 17) is listed as “Down Regulated”. Besides, the “Status of “a”-hetobutyrate” value in series [1] (FIG. 5 network component 18) was “Down Regulated”. Moreover, the “Status of L-cysteine” value in series [1] (FIG. 5 network component 19) is given as “Down Regulated”. Also, the “Status of L-serine” value in series [1] (FIG. 5 network component 21) was “Down Regulated”. Besides, the “Status of “o”-phosphoethanolamine” value in series [1] (FIG. 5 network component 23) is given as “Up Regulated”. Moreover, the “Status of (‘S)-lactate” value in series [1] (FIG. 5 network component 25) is “Down Regulated”. In addition, the “Status of Pyruvate” value in series [1] (FIG. 5 network component 26) was “Down Regulated”. The “Status of Phospho‘enol’pyruvate” value in series [1] (FIG. 5 network component 29) was “No Significant Change”. In addition, in series [1] (FIG. 5 network component 30), the “Status of GTP” value is on record as “Down Regulated”. Besides, the “Status of GDP” value in series [1] (FIG. 5 network component 31) is “didn't undergo a significant change; also recorded: No Significant Change”. Moreover, the “Status of Phenylpyruvate” value in series [1] (FIG. 5 network component 32) was “Up Regulated”. Further, the “Status of L-phenylalanine” value in series [1] (FIG. 5 network component 33) is on record as “Down Regulated”. Further, the “Status of L-tyrosine” value in series [1] (FIG. 5 network component 34) is reported as “Down Regulated”. Also, the “Status of L-dopa” value in series [1] (FIG. 5 network component 35) is “Down Regulated”. Further, the Status of glutathione result in series [1] (FIG. 5 network component 37) is reported as “Up Regulated”. Further, the “low toxic dose in rats” value in series [2] is on record as 1500 mg/kg.
